From US20250388896A1, “COMPOSITION AND METHODS FOR TRANSGENE INSERTION” (ARTISAN DEVELOPMENT LABS, INC, priority 2022, published 2025)

Columns and labels:
AAVS1 = experiment: CAR insertion efficiency at AAVS1 in primary T-cells by flow cytometry; type: cell-based, human; conditions: primary Pan T-cells; recovery medium pretreated with 2 μM M3814; 75:50 pmol gNA:MAD7, 1.5 μg μL^−1 donor template, PGA
Method: T-cells were isolated from human peripheral blood obtained from healthy adults by immune-magnetic negative selection using the EasySep Human T-cell Isolation Kit ([sequence] Technologies). After isolation, T-cells were activated in 25 μL mL^−1 ImmunoCult Human CD3/CD28/CD2 T-Cell Activator ([sequence] Technologies) in ImmunoCult-XF T-Cell Expansion Medium ([sequence] Technologies) containing 12.5 ng mL^−1 Human Recombinant IL-2, 5 ng mL^−1 IL-7, and 5 ng mL^−1 IL-15 ([sequence] Technologies) and seeded at 1.0×10^6 cells mL^−1. Until transfection 48 hours later, the cells were cultured at 37° C. in 5% CO2 incubators.
Donor templates comprising site-specific homology arms, respective promoter, and respective gene (GFP or Hu19 scFv-CD8α-CD28-CD3ζ CAR) were amplified from corresponding pTwist Ampicillin high-copy plasmids (Twist Bioscience) using homology arms-specific PCR primers. […] Purified HDR templates were collected and quantified on NanoDrop One Microvolume UV-Vis Spectrophotometer (ThermoFisher Scientific). […] HDR templates were collected, diluted, and concentrations quantified using Qubit dsDNA HS Assay Kit (ThermoFisher Scientific). […]

AAVS1 locus = experiment: INDEL frequency at the AAVS1 locus in Jurkat cells; type: cell-based, human
Method: Ribonucleoprotein complexes (RNPs) were generated by incubating respective guide nucleic acids (gNAs) with MAD7 in the molar ratio of 3:2 gNA:MAD7 for 15 minutes at room temperature immediately before transfection. For Jurkat experiments, the RNP complexes were generated by mixing the respective gNA (150 pmol), MAD7 (100 pmol), and nuclease-free water, unless otherwise stated. […] Lonza 4D Nucleofector with Shuttle unit (V4SC-2960 Nucleocuvette Strips) was used for transfection, following the manufacturer's instructions. […] Extracted genomic DNA was quantified using the NanoDrop (ThermoFisher Scientific). […] The DNA was eluted from the beads with nuclease-free water and the size of the purified amplicons analyzed on a 2% agarose E-gel using the E-gel electrophoresis system (ThermoFisher Scientific). In the second PCR, unique pairs of Illumina-compatible indexes (Nextera XT Index Kit v2) were added to the amplicons using the KAPA HiFi HotStart Ready Mix (Roche). […] Sizes of the purified DNA fragments were validated on a 2% agarose gel using the E-gel electrophoresis system (ThermoFisher Scientific), quantified using Qubit dsDNA HS Assay Kit (Thermo Fisher) and then pooled in equimolar concentrations. […] The final library was sequenced on Illumina MiSeq System using the MiSeq Reagent Kit v.2 (300 cycles, 2×250 bp, paired-end reads). […]

Row | Molecule | more efficient CAR insertion than other experiments (AAVS1) [times] | activity of gNA targeting AAVS1 (INDEL frequency) (AAVS1 locus)
1 | COc1ccc([C@@H](O)c2cc(-c3ncnc4cc(N5CCOCC5)ccc34)c(F)cc2Cl)nn1 [M3814] | ~5 | –
2 | crAAVS1: highly active gNA targeting the AAVS1 safe-harbor locus (guide TTAGGATGGCCTTCTCCGACG; listed as DNA, further chemistry not given here) | – | highly active
